Results: ChEMBL document CHEMBL1201862, “PubChem BioAssay data set” (2004)
Active and inactive are the calls of the source.

Tests used:
[1] = biological target: Cytochrome P450 3A4 (Homo sapiens, UniProt P08684); conditions: Potency;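 further: confirmatory qHTS run detecting inhibitors and substrates of CYP3A4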
[2] = biological target: T1, Calpain-2 catalytic subunit (Sus scrofa, UniProt P43367); assay: pig calpain II inhibitor potency, dose response, biochemical, fluorogenic peptide substrate (AID 1420); type: functional
T1 sequence (P43367 whole entry): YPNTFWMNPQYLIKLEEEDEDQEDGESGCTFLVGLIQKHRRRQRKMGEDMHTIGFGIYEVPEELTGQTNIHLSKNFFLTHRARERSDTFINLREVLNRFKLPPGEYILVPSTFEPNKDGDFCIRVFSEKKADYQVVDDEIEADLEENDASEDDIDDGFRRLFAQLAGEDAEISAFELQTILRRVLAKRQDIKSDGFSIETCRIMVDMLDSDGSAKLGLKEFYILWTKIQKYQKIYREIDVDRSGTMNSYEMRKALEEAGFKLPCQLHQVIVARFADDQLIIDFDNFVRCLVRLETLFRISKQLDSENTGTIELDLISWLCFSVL

[3] = biological target: T2, Corticotropin-releasing factor receptor 2/Corticotropin-releasing factor-binding protein (Homo sapiens, UniProt P24387+Q13324); assay: Dose Response confirmation of uHTS hits for small molecule antagonists of the CRF-binding protein and CRF-R2 receptor complex.; type: functional; conditions: read-out: IC50_Mean
T2 sequence (Q13324 whole entry): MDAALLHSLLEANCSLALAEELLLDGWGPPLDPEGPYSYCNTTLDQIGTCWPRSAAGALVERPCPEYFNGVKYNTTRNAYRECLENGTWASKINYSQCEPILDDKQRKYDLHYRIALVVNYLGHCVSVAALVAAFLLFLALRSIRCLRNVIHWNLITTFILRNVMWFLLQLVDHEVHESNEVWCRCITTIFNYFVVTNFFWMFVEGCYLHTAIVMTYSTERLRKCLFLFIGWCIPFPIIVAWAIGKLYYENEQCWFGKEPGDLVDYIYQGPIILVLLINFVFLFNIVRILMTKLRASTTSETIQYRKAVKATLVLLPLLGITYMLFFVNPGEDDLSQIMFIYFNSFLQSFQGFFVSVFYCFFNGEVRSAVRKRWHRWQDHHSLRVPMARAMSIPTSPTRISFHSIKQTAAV
T2 sequence (P24387 whole entry): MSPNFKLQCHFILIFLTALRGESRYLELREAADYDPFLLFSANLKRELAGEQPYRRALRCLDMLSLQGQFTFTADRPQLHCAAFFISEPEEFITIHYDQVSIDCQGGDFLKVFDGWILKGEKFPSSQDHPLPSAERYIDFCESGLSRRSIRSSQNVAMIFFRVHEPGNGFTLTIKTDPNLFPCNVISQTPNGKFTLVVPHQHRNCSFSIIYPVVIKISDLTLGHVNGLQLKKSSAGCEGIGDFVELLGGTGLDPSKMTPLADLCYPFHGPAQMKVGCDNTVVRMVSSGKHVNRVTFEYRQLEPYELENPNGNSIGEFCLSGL

[4] = biological target: T2, Corticotropin-releasing factor receptor 2/Corticotropin-releasing factor-binding protein; assay: activators of CRF receptor 2 with binding protein – uHTS hits, confirmation (AID 602473); type: functional; conditions: read-out: EC50_Mean
[5] = CRF-BP/CRF-R2 complex antagonists, dose response, cell-based, uHTS hits, 384-well (AID 651639); type: functional, Homo sapiens; conditions: read-out: IC50_Mean
[6] = biological target: Disintegrin and metalloproteinase domain-containing protein 17 (Homo sapiens, UniProt P78536); assay: exosite inhibitors of ADAM17, dose response, biochemical (AID 743260)
[7] = ADAM10 protease inhibitors, dose response, selectivity assay for ADAM17 exosite inhibitor project, biochemical, FRET peptide substrate, recombinant human ADAM10 (AID 743259);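 further: ADAM10 enzyme cleaving a FRET peptide substrate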
[8] = test system: Streptococcus sp. 'group A'; assay: growth inhibition of control SK(-) GAS strain, dose response, counter-screen for streptokinase expression inhibitor project, luminescence, kanamycin, BacTiterGlo, confirmation (AID 1900); type: functional, organism-based
[9] = cells; type: functional, cell-based
[10] = inhibitors of intracellular T. cruzi replication, confirmation, NIH3T3 host cells, beta-gal luminescence (AID 2044); type: functional, cell-based;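 further: intracellular parasites grown in NIH/3T3 mouse fibroblasts as host cells; luminescent beta-galactosidase reporter signal from transgenic T. cruzi replicating inside host cells; inhibitors lower the luminescence signal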
[11] = cells; type: functional, cell-based; remark: listed apart in the source
[12] = cytotoxicity toward NIH3T3 fibroblasts, dose response, counter-screen, cell-based, ATP luminescence, mouse fibroblasts (AID 2010); type: functional;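 further: cells exposed to compound for about 90 hours before reading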
[13] = test system: Streptococcus; assay: Group A Streptococcus viability loss, dose response, counter-screen for streptokinase expression inhibitor project, luminescence, BacTiterGlo (AID 1915); type: functional, organism-based;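 further: potency for reduction of bacterial viability or growth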
[14] = THP-1 cell cytotoxicity, dose response, cytotoxicity control for non-replicating M. tuberculosis project (AID 489025); type: functional
[15] = Vero E6 cell cytotoxicity, dose response, cytotoxicity control for non-replicating M. tuberculosis project, secondary assay (AID 492998); type: functional, VeroE6; conditions: Vero C1008
[16] = cells; type: functional
[17] = test system: INS1; assay: beta cell apoptosis inhibitors, cytokine rescue, dose response, luminescence, retest (AID 449756); type: functional, cell-based; conditions: Rattus norvegicus;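 further: cell death triggered by IL-1 beta plus TNF-alpha plus IFN-gamma mixture; protective hits raise ATP signal compared with cytokine alone wells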
[18] = HEK293T cytotoxicity, dose response, cytotoxicity control for miR-122 modulator project, cell-based, inhibitor set, cherry-pick, set 2 (AID 720697); type: functional
[19] = HEK293T cytotoxicity, dose response, cytotoxicity control for miR-122 modulator project, cell-based, activator set, cherry-pick (AID 720690); type: functional;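 further: HEK293T human cells scored for general mammalian cytotoxicity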
[20] = HepG2 cell cytotoxicity, dose response, cytotoxicity control, ATP luminescence, cherry-pick, activator set 2 (AID 1053143); type: functional, cell-based
[21] = biological target: T3, Estrogen receptor (Homo sapiens, UniProt P03372);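 further: potency for inhibiting coactivator peptide recruitment to the receptor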
T3 sequence (P03372 whole entry): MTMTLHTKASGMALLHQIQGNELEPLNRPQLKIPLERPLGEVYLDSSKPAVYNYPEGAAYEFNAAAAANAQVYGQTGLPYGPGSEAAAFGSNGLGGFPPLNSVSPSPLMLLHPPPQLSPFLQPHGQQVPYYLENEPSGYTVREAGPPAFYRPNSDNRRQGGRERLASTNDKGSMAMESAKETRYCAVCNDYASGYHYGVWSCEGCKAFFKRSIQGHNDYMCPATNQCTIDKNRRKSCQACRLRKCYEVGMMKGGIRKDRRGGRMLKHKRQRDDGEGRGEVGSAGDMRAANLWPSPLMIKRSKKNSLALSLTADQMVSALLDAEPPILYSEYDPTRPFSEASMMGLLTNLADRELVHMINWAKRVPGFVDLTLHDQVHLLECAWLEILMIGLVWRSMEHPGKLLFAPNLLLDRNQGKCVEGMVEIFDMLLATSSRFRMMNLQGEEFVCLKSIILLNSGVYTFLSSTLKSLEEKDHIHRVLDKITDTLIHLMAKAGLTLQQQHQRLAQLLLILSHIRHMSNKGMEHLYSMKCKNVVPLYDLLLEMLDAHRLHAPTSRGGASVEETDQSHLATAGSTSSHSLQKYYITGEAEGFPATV

[22] = cells
[23] = biological target: Paired box protein Pax-8 (Homo sapiens, UniProt Q06710); assay: inhibitors of PAX8-driven TPO luciferase reporter, dose response, RMG-I cells, cherry-pick (AID 687027); type: functional, cell-based;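 further: luciferase reporter driven by Pax8 target thyroperoxidase promoter measured by SteadyGlo luminescence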
[24] = IOSE-T80 ovarian epithelial cell cytotoxicity, dose response, cytotoxicity control for PAX8 inhibitor project, plate reader, dry powder samples (AID 743045); type: functional, cell-based
[25] = NIH:OVCAR-3 ovarian cancer cell cytotoxicity, dose response, PAX8 inhibitor project, plate reader, dry powder samples (AID 743044); type: functional, cell-based
[26] = cytotoxicity in OVCAR8 ovarian cancer cells, dose response, PAX8 project, cell-based, plate reader, dry powder samples (AID 743197); type: functional; conditions: OVCAR-8
[27] = biological target: T4, fMet-Leu-Phe receptor (Homo sapiens, UniProt P21462); assay: FPR ligands, dose response (AID 519); type: functional
T4 sequence (P21462 whole entry): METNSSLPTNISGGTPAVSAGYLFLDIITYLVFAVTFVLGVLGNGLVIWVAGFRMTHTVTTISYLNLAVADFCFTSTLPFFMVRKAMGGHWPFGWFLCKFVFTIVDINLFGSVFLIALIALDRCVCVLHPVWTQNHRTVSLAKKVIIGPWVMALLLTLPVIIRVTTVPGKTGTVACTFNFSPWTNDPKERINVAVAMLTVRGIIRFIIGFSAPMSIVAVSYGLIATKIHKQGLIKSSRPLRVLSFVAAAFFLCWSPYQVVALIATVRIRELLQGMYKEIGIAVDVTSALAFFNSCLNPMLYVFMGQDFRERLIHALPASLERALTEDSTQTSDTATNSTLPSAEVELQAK

[28] = RKO cell viability reduction, dose response, CellTiter-Glo luminescence (AID 1117322); type: functional
[29] = cytotoxicity toward HCT116 cells – cell-based, CellTiter-Glo luminescence, IC50, dose response (AID 1117332); type: functional; conditions: HCT-116
[30] = SNU-C1 cell viability reduction, dose response, CellTiter-Glo luminescence (AID 1117323); type: functional, cell-based
[31] = cytotoxicity toward Colo320 cells – cell-based, CellTiter-Glo luminescence, IC50, dose response (AID 1117334); type: functional; conditions: COLO 320
[32] = CellTiter-Glo luminescent dose response of DLD-1 viability loss (AID 1117352); type: functional
[33] = HCT116 cell viability decrease, GSK3B pretreatment – CellTiter-Glo, IC50, dose response (AID 1117339); type: functional; conditions: HCT-116

Sequence of Disintegrin and metalloproteinase domain-containing protein 17 (P78536 whole entry, the tested form may be a part): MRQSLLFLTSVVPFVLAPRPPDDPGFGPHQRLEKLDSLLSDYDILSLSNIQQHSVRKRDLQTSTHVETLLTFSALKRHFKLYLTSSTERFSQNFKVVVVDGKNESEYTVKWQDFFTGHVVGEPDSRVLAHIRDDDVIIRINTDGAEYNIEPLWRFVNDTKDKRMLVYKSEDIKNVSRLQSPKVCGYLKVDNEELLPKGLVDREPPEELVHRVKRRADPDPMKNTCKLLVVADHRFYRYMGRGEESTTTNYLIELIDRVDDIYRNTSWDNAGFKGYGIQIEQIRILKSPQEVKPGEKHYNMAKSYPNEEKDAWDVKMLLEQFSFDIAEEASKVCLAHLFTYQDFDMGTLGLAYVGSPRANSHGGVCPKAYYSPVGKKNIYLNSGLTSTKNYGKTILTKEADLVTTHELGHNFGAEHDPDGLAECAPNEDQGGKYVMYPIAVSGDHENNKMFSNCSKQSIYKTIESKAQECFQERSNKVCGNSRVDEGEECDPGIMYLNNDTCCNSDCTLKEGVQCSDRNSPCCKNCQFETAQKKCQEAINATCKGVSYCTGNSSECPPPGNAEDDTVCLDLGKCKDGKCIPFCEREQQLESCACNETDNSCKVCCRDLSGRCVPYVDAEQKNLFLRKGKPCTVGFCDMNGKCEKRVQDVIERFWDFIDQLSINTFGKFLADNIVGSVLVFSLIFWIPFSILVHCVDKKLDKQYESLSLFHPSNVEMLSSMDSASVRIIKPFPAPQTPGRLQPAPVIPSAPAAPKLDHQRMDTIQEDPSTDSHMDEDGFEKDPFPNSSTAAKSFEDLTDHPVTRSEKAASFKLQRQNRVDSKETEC
Sequence of Cytochrome P450 3A4 (P08684 whole entry): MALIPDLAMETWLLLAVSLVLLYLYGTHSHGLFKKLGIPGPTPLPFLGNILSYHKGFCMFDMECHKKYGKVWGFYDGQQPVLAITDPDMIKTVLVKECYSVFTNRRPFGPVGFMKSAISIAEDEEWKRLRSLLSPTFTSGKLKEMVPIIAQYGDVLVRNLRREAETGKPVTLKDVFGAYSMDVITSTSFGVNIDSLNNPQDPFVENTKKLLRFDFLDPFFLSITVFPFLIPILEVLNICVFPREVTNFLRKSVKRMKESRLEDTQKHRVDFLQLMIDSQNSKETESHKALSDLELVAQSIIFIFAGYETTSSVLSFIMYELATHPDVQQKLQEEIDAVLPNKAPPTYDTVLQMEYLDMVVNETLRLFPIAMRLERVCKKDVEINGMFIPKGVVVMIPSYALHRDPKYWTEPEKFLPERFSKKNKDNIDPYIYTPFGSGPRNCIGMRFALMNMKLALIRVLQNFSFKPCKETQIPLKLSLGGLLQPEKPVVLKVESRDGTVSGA
Sequence of Paired box protein Pax-8 (Q06710 whole entry): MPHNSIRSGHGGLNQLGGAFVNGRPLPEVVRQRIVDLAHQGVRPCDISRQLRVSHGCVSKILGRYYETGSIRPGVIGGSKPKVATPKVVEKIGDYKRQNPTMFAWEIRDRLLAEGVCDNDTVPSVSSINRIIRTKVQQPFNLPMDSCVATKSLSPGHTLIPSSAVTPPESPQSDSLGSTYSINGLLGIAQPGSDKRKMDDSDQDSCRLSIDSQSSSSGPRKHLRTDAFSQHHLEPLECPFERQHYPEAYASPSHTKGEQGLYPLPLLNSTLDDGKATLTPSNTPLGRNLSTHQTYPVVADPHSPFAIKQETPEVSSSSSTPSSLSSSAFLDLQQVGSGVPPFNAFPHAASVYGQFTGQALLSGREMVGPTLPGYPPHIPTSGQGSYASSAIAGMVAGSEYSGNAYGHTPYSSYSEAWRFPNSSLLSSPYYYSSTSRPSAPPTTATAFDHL

## C=C(Cl)CSC(=S)N(CC)CC [SULFALLATE]
[1]
  AC50: 10 µM (inconclusive)

## COc1cccc(CNc2ccc([N+](=O)[O-])cc2C)c1
[2]
  IC50: 41 µM (not active)
[3]
  IC50: 9.05 µM (active)
[4]
  EC50: > 53 µM (inactive)
[5]
  IC50: 20 µM (active)
[6]
  IC50: > 69.5 µM (inactive)
[7]
  IC50: 27.4 µM (inactive)

## Oc1ccccc1/C=N/Nc1nc2ccccc2o1
[8]
  EC50: 1.9 µM (active)
[9]
  EC50: > 350 µM (not active)
[10]
  EC50: 2.92 µM (active)
[11]
  EC50: 4.02 µM (active)
[12]
  EC50: > 60 µM (not active)
[13]
  EC50: 4.17 µM (active)
[14]
  CC50: 1.68 µM (active)
[15]
  CC50: 2.59 µM (active)
[16]
  IC50: 33.3 µM (active)
[17]
  AC50: 1.59 µM (active)
[18]
  AC50: 2.53 µM (active)
[19]
  AC50: 5.79 µM (active)

## COc1ccc(CCNC(=O)c2cc(-c3ccco3)on2)cc1OC
[9]
  EC50: 12.5 µM (active)
[11]
  EC50: > 350 µM (not active)
[20]
  AC50: 26 µM (active)

## NC(=O)c1c(NC(=O)c2cccs2)sc2c1CCCCCC2
[21]
  IC50: 25.9 µM (active)

## O=C(Nc1ccncc1)Nc1ccc(Cl)cc1Cl
[10]
  EC50: < 0.1 µM (active)
[12]
  EC50: > 60 µM (not active)
[22]
  EC50: 0.079 µM (active)

## Cc1csc2nc(CCNS(=O)(=O)c3ccc4c(c3)OCCO4)cn12
[21]
  IC50: 17.1 µM (active)

## O=C(CSc1nc2ccccc2c(=O)n1-c1ccccc1Cl)Nc1cccc(S(=O)(=O)N2CCOCC2)c1
[6]
  IC50: > 69.5 µM (inactive)
[7]
  IC50: > 69.5 µM (inactive)

## Cc1ccc(C(=O)Nc2nc3ccc(S(C)(=O)=O)cc3s2)o1
[20]
  AC50: 26 µM (active)

## O=S(=O)(c1ccccc1F)N1CC[C@H]2[C@H](CO)Nc3ccc(C4=CCCCC4)cc3[C@H]21
[23]
  AC50: 6.12 µM (active)
[24]
  AC50: 32.9 µM (active)
[25]
  AC50: 18.4 µM (active)
[26]
  AC50: 26.7 µM (active)

## COc1ccccc1Oc1c(C)oc2cc(OC(=O)c3ccco3)ccc2c1=O
[27]
  Ki: 19.4 µM (inactive)

## O=C(/C=C\c1ccco1)Oc1cccc2cccnc12
[20]
  AC50: 26 µM (active)

## COc1ccc(-n2c(Cc3cccn3C)nnc2SCC(=O)Nc2ccc(Cl)cc2)cc1
[27]
  Ki: 32.9 µM (inactive)

## Cc1ccc(C(C(=O)NC2CCCCC2)N(Cc2ccccc2)C(=O)Cc2c[nH]c3ccccc23)o1 (stereo not given)
[6]
  IC50: > 69.5 µM (inactive)
[7]
  IC50: 10.3 µM (inactive)

## CSc1ccc(CN2CCN(Cc3ccc([N+](=O)[O-])cc3)CC2)cc1
[10]
  EC50: < 0.1 µM (active)
[12]
  EC50: > 60 µM (inconclusive)
[22]
  EC50: 0.135 µM (active)

## COC(=O)C/C=C/C(C)C(OCc1cccc(-c2ccccc2)c1)C1CCCCC1 (stereo not given)
[1]
  AC50: 3.98 µM (inconclusive)

## CC(C)CN(CC(C)C)C(=O)CS(=O)(=O)Cc1ccccc1
[27]
  Ki: 8.5 µM (active)

## O=C(OCc1ccccc1)c1cccnc1 [BENZYL NICOTINATE]
[28]
  IC50: > 20 µM (inactive)
[29]
  IC50: > 20 µM (inactive)
[30]
  IC50: > 20 µM (inactive)
[31]
  IC50: > 20 µM (inactive)
[32]
  IC50: > 20 µM (inactive)
[33]
  IC50: > 20 µM (inactive)
